According to the supplement of paper PMC4862054:

Experiments:
Settings in all cases: incubation time: 72 h
[1] = tested on: BT-474; test: drug sensitivity score (DSS), CellTiter-Blue viability (DSS (AUC-based score)); higher = stronger viability inhibition; extreme values may be limits of the assay
Protocol: (§1)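 DSRT with the CellTiter-Blue (resazurin reduction) viability readout, fluorescence 560/590 nm, 72 h incubation. Plates were normalised to DMSO and benzethonium chloride controls. DSS is computed from the area under the fitted dose-response curve (5 or 9 concentrations).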

[2] = tested on: BT-549; test: as above
Protocol: as §1

[3] = tested on: CAL-120; test: as above
Protocol: as §1

[4] = tested on: CAL-148; test: as above
Protocol: as §1

[5] = tested on: CAL-51; test: as above
Protocol: as §1

[6] = tested on: CAL-85-1; test: as above
Protocol: as §1

[7] = tested on: DU-4475; test: as above
Protocol: as §1

[8] = tested on: HCC1143; test: as above
Protocol: as §1

[9] = tested on: HCC1599; test: as above
Protocol: as §1

[10] = tested on: HCC1937; test: as above
Protocol: as §1

[11] = tested on: HDQ-P1; test: as above
Protocol: as §1

[12] = tested on: Hs578T; test: as above
Protocol: as §1

[13] = tested on: MDA-MB-231; test: as above
Protocol: as §1

[14] = tested on: MDA-MB-436; test: as above
Protocol: as §1

[15] = tested on: MDA-MB-453; test: as above
Protocol: as §1

[16] = tested on: MDA-MB-468; test: as above
Protocol: as §1

[17] = tested on: MFM-223; test: as above
Protocol: as §1

[18] = tested on: SK-BR-3; test: as above
Protocol: as §1

[19] = tested on: BT-549; test: drug sensitivity score (DSS), CellTox Green (DSS (AUC-based score)); higher = stronger drug effect (viability inhibition or cytotoxicity); extreme values may be limits of the assay
Method in brief: (§2)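 Compound was dispensed into 384-well plates at 5 concentrations in 10-fold steps spanning a 10,000-fold range chosen for each compound, and 20 µl of breast cancer cell suspension was added before 72 h of incubation. CellTox Green fluorescence was read at 485/520 nm, followed by CellTiter-Glo luminescence after 10 min at room temperature. Values on each plate were normalised to 0.1 % DMSO and a positive kill control. The drug sensitivity score came from the area under the fitted dose-response curve.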

[20] = tested on: CAL-148; test: as above
Method in brief: as §2

[21] = tested on: CAL-51; test: as above
Method in brief: as §2

[22] = tested on: HCC1937; test: as above
Method in brief: as §2

[23] = tested on: HDQ-P1; test: as above
Method in brief: as §2

[24] = tested on: MCF-10A; test: as above
Method in brief: as §2

[25] = tested on: MDA-MB-453; test: as above
Method in brief: as §2

[26] = tested on: MDA-MB-468; test: as above
Method in brief: as §2

SMILES	drug sensitivity score [1]	drug sensitivity score [2]	drug sensitivity score [3]	drug sensitivity score [4]	drug sensitivity score [5]	drug sensitivity score [6]	drug sensitivity score [7]	drug sensitivity score [8]	drug sensitivity score [9]	drug sensitivity score [10]	drug sensitivity score [11]	drug sensitivity score [12]	drug sensitivity score [13]	drug sensitivity score [14]	drug sensitivity score [15]	drug sensitivity score [16]	drug sensitivity score [17]	drug sensitivity score [18]	drug sensitivity score [19]	drug sensitivity score [20]	drug sensitivity score [21]	drug sensitivity score [22]	drug sensitivity score [23]	drug sensitivity score [24]	drug sensitivity score [25]	drug sensitivity score [26]
Nc1nc(=O)c2c([nH]1)NCC(CNc1ccc(C(=O)N[C@@H](CCC(=O)O)C(=O)O)cc1)N2C=O (mixture of isomers) [Folinic acid]	0	0	0	0	0	0	0	0	0	0	0	0	0	0	0	0	0	0	–	–	–	–	–	–	–	–
Nc1ccccc1NC(=O)c1ccc(CNc2nccc(-c3cccnc3)n2)cc1 [Mocetinostat]	2.91	7.6	13.4	8.31	5.94	8.63	12.9	6.77	10.1	7.41	2.86	6.43	6.93	9.06	12.8	7.64	3.47	10.9	1.91	2.32	8.87	0.396	14.5	0	0	10.9
CCC/C=C/C=C/C(=O)O[C@H]1/C(=C/C(=O)OC)C[C@H]2C[C@H]([C@@H](C)O)OC(=O)C[C@H](O)C[C@@H]3C[C@H](OC(C)=O)C(C)(C)[C@](O)(C[C@@H]4C/C(=C/C(=O)OC)C[C@H](/C=C/C(C)(C)[C@]1(O)O2)O4)O3 [Bryostatin 1]	0	0	0	16.1	0	7.23	0	6.66	16.1	0	0	0	0	0	0	0	0	4.97	0	0	0	4.81	10.8	0	0	0
CC/C(=C(\c1ccc(O)cc1)c1ccc(OCCN(C)C)cc1)c1ccccc1 [4-hydroxytamoxifen]	–	–	–	–	–	–	–	–	–	–	–	–	–	–	–	–	–	–	0	0	0	8.17	0	0	1	21
O=C(NC[C@H](O)CO)c1ccncc1Nc1ccc(I)cc1F [Pimasertib]	–	–	–	–	–	–	–	–	–	–	–	–	–	–	–	–	–	–	0	0	0	0	0	0	0	0
Cc1cccc(-c2nn3c(c2-c2ccnc4ccc(C(N)=O)cc24)CCC3)n1	0	0	0	0	0	0	0	0	0	0	0	0	0	0	0	0	0	0	–	–	–	–	–	–	–	–
CCCCC/C=C/C=C1/C(=O)C=C[C@@H]1C/C=C\CCCC(=O)O [15D-PGJ2]	–	–	–	–	–	–	–	–	–	–	–	–	–	–	–	–	–	–	0	0	0	0	0	0	0	0
Cc1c(Cn2c(C)nc3c(C(=O)O)cc(N4CCOCC4)cc32)cccc1C(F)(F)F	–	–	–	–	–	–	–	–	–	–	–	–	–	–	–	–	–	–	0	0	0	0	0	0	0	0
CS(=O)(=O)N1CCN(Cc2cc3nc(-c4cccc5[nH]ncc45)nc(N4CCOCC4)c3s2)CC1 [GDC-0941]	11.8	9.12	10.5	11.3	13.9	9.93	2.84	9.14	11.7	8.92	18.3	8.67	8.4	7.33	18.5	8.93	12.7	19.4	–	–	–	–	–	–	–	–
O=S(=O)(c1cccc2cnccc12)N1CCCNCC1 [Fasudil]	0	0	0	0	0	0	0	0	0	0	0	0	0	0	0.912	0	1.41	0	0	0	0	0	–	0	0	–
CS(=O)(=O)N1CCN(Cc2cc3nc(-c4cccc5[nH]ncc45)nc(N4CCOCC4)c3s2)CC1 [Pictilisib]	–	–	–	–	–	–	–	–	–	–	–	–	–	–	–	–	–	–	0	9.53	4.02	0	0	7.08	0	0
Cn1cc(CNCC2CCN(c3ncc(C(=O)NO)cn3)CC2)c2ccccc21 [Quisinostat]	–	–	–	–	–	–	–	–	–	–	–	–	–	–	–	–	–	–	0	14.8	10.9	0	1.56	0	0.347	18.9
CNC(=O)c1cc(Oc2ccc(NC(=O)Nc3ccc(Cl)c(C(F)(F)F)c3)cc2)ccn1 [Sorafenib]	0	–	0	0	0	–	0	0	0	0	0	0	0	0	0	0	–	0	0	0	0	0	0	0	0	0
CCN(CC)CCNC(=O)c1c(C)[nH]c(/C=C2\C(=O)Nc3ccc(F)cc32)c1C [Sunitinib]	0	0	0	0	0	0	0	0	0	0	–	0	0	0	0	0	0	0	0	0	0	0	0	0	0	0
Cc1cccc(-c2nn3c(c2-c2ccnc4ccc(C(N)=O)cc24)CCC3)n1 [Galunisertib]	–	–	–	–	–	–	–	–	–	–	–	–	–	–	–	–	–	–	0	0	0	0	0	0	0	0
Cn1cc(CNCC2CCN(c3ncc(C(=O)NO)cn3)CC2)c2ccccc21	19.9	8.2	20.2	22.6	13.7	19.1	21.1	18.9	16.5	16.5	16.5	13.1	15	5.46	27.8	14.1	14.9	25.8	–	–	–	–	–	–	–	–
O=C(NC[C@H](O)CO)c1ccncc1Nc1ccc(I)cc1F	0	0	7.78	3.49	3.9	6.9	35.2	13.8	4.05	0	10.3	0	21.9	0	4.94	0	0	0	–	–	–	–	–	–	–	–
CC(=O)OC[C@H]1O[C@@H]([S-])[C@H](OC(C)=O)[C@@H](OC(C)=O)[C@@H]1OC(C)=O.CCP(CC)CC.[Au+] [Auranofin]	–	–	–	–	–	–	–	–	–	–	–	–	–	–	–	–	–	–	4.41	0.881	3.46	4.79	6.27	0	1.98	9.05
CC(C)N(CCCNC(=O)Nc1ccc(C(C)(C)C)cc1)C[C@H]1O[C@@H](n2cc(Br)c3c(N)ncnc32)[C@H](O)[C@@H]1O [SGC0946]	–	–	–	–	–	–	–	–	–	–	–	–	–	–	–	–	–	–	0	0	0	0	0	0	0	0
